The source made the active and inactive calls.
How the values were obtained:
Assay type in all cases: functional, organism-based
[1] = tested on: Candida albicans; assay: Antimicrobial activity against Candida albicans at 40 ug after 24 hrs by agar diffusion method
[2] = tested on: Chlorella sorokiniana; assay: Antimicrobial activity against Chlorella sorokiniana at 40 ug after 24 hrs by agar diffusion method
[3] = tested on: Streptomyces viridochromogenes; assay: Antimicrobial activity against Streptomyces viridochromogenes at 40 ug after 24 hrs by agar diffusion method
[4] = tested on: Chlorella vulgaris; assay: Antimicrobial activity against Chlorella vulgaris at 40 ug after 24 hrs by agar diffusion method
[5] = tested on: Staphylococcus aureus; assay: Antimicrobial activity against Staphylococcus aureus at 40 ug after 24 hrs by agar diffusion method
[6] = tested on: Bacillus subtilis; assay: Antimicrobial activity against Bacillus subtilis at 40 ug after 24 hrs by agar diffusion method
[7] = tested on: Escherichia coli; assay: Antimicrobial activity against Escherichia coli at 40 ug after 24 hrs by agar diffusion method
[8] = tested on: Desmodesmus subspicatus; assay: Antimicrobial activity against Scenedesmus subspicatus at 40 ug after 24 hrs by agar diffusion method

Measured: Activity

CC(=O)O[C@H](C)[C@@H]1c2cc3cccc(O[C@@H]4O[C@H](C(=O)O)[C@@H](O)[C@H](O)[C@H]4O)c3c(O)c2C(=O)C[C@]1(C)O
inactive: all assays above

From ChEMBL document CHEMBL1141304, “Julichrome Q6 glucuronide, a monomeric subunit of the julimycin B-I complex from a terrestrial Streptomyces sp” (J Nat Prod, 2007)
